Measurements published in patent publication US11324733B2, “Methods for improving memory and cognition and for treating memory and cognitive disorders” (Cavion, Inc., priority 2017, dated 2022).

Tested on: AS mice (Ube3am−/p+ KO mice) with LTP deficits
Experiment: LTP deficits in cognitively deficient (AS) mice; fEPSP recording in hippocampal slices after oral treatment
Assay type: in vivo
Protocol: For all behavioral and electrophysiology experiments female Ube3am−/p+ KO mice (i.e., AS mice) were crossed with wild-type males, to generate heterozygous AS mice and littermate controls in the F1 hybrid 12952-057BL/6 background. The AS mice have cognitive deficits, including long term potentiation (LTP) deficits.
Control mice (“wt”) were treated with vehicle while AS mice were treated with vehicle or MK-8998 (“CX”) at 30 mg/kg or at 60 mg/kg dose given orally twice per day in the morning and afternoon. Dosing was carried out for one week before testing, then behavioral tests were carried out on the animals over a 5-week period.
After the behavioural tests, animals remained under treatment until the animals were sacrificed one hour after the last drug administration. […] LTP was evoked using the 10 Theta burst protocol (10 trains of 4 stimuli at 100 Hz, 200 ms apart), performed at two-third of the maximum fEPSP. fEPSP sizes were recorded once per minute. Potentiation was measured as the normalized increase of the mean fEPSP slope for the duration of the baseline. […] Final LTP was determined over the last 10 min of the recording. […]
LTP was evoked using the 10 Theta burst protocol (10 trains of 4 stimuli at 100 Hz, 200 ms apart), performed at two-third of the maximum fEPSP. Final LTP was determined over the last 10 min of the recording. […]

CC(C)c1ccc(CC(=O)N[C@H](C)c2ccc(OCC(F)(F)F)cn2)cc1 [MK-8998]
P, post hoc Bonferroni multiple comparisons, AS Vehicle vs treated (LTP) (30 mg/kg): 0.01 | P, post hoc Bonferroni multiple comparisons, AS Vehicle vs treated (LTP) (60 mg/kg): 0.02
